The results in this text go back to patent US5739112A, “Inhibitors of factor Xa” (Corvas International, Inc., priority 1995, dated 1998).

SMILES strings stand for the structures. Numbered stars: 1 amine (or outer) side, 2 acyl side, 3 side chain; on linkers, the order of the positions; unused ones are H or OH. Square brackets hold non-standard residues; d marks the D form. Peptide text beside a SMILES is read from it. * marks the point of attachment. 1Nal = N[C@@H](Cc1cccc2ccccc12)C(=O)O; 2Nal = N[C@@H](Cc1ccc2ccccc2c1)C(=O)O; d2Nal = N[C@H](Cc1ccc2ccccc2c1)C(=O)O; dPhg = N[C@@H](C(=O)O)c1ccccc1; Suc = O=C(CCC(=O)[*:2])[*:1]; Boc = CC(C)(C)OC(=O)*

Assay type in all cases: biochemical
The target in one test is T1, Human factor Xa (Homo sapiens, UniProt P00742).
T1 construct: Human factor X contains a light-chain subunit containing 139 amino acid residues; purchased Enzyme Research Laboratories
T1 sequence (P00742 235-488 limits assumed): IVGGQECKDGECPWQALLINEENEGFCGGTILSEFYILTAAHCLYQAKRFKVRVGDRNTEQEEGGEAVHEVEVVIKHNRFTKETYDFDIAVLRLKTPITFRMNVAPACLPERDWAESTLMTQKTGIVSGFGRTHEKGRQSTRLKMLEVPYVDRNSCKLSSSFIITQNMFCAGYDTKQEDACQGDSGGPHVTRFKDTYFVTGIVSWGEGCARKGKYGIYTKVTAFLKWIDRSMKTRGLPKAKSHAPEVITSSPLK
T1 sequence (P00742 41-179 partner limits assumed): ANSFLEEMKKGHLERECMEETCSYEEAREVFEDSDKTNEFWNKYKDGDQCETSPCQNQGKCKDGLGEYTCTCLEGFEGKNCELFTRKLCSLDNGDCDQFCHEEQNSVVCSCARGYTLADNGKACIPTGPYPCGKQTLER
The test is described as follows: Factor Xa assay (chromogenic substrate S-2765). Particulars: for IC50: 60 min preincubation at room temperature, TBSA pH 7.4; for Percent Selectivity Xa: taken as 100 by definition. As for the experimental part:
(§1) To assay their activities, the compounds of the present invention are dissolved in buffer to give solutions containing concentrations ranging under assay concentrations from 0 to about 100 μM. The enzyme to be tested is then added to a solution containing a specified concentration of the test compound. Then after an incubation period, synthetic substrate for the enzyme being tested is added. The rate of substrate turnover is determined spectrophotometrically. The IC50 of the test compound is determined for each test compound in assays for factor Xa, factor XIa, thrombin and tPA. IC50 is that concentration of test compound giving 50% inhibition of the substrate turnover. Percent selectivity is used to indicate selectivity of a compound in inhibiting Factor Xa in comparison with either Factor XIa, thrombin or tPA. Percent selectivity of a particular compound for either Factor XIa, thrombin or tPA refers to a number obtained by dividing the product of one hundred and the IC50 of the compound for Factor Xa by the IC50 of the compound for either Factor XIa, thrombin or tPA.
(§2) The specificity of the peptide aldehydes through was determined by measurement of their IC50 against factor Xa, factor XIa, thrombin and tissue plasminogen activator (tPA). Peptide aldehyde which has been described in the art was run as a comparison. A specific concentration of enzyme and its substrate were challenged with varying concentrations: of inhibitor. IC50 is that concentration of inhibitor giving 50% inhibition of catalytic activity, under the assay conditions Specific assay procedures used are presented below.
Enzyme activity was determined using as substrate, S2765 (N-a-benzyloxycarbonyl-D-argininyl-L-glycyl-L-arginine-p-nitroanilide dihydrochloride) which was obtained from Kabi Diagnostica. The substrate was made up in deionized water prior to use.
Human factor Xa was obtained from Enzyme Research Laboratories. The enzyme was diluted into TBSA prior to use.
The assay was run by combining in appropriate wells 50 μL of TBSA, 50 μL of inhibitor in TBSA or TBSA (as negative control) and 50 μL of 2 nM human Factor Xa or TBSA (as background control). After incubating this mixture for 60 minutes at room temperature, 50 μL of 1 mM S-2765 was added to each well and the initial rate of the change of the optical density at 405 nm (OD405 nm) for each well was determined. OD405 nm was measured every 10 seconds for 5 minutes.

Another test deals with T2, Human factor XIa (Homo sapiens, UniProt P03951).
T2 construct: purchased Enzyme Research Laboratories, Inc
T2 sequence (P03951 388-625 limits assumed): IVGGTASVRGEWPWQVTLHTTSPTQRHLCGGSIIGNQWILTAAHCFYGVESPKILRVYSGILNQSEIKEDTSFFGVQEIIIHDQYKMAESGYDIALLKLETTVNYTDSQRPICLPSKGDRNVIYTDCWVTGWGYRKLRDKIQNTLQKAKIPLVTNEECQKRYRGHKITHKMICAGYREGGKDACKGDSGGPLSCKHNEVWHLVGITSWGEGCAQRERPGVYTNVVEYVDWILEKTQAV
T2 sequence (P03951 19-387 partner limits assumed): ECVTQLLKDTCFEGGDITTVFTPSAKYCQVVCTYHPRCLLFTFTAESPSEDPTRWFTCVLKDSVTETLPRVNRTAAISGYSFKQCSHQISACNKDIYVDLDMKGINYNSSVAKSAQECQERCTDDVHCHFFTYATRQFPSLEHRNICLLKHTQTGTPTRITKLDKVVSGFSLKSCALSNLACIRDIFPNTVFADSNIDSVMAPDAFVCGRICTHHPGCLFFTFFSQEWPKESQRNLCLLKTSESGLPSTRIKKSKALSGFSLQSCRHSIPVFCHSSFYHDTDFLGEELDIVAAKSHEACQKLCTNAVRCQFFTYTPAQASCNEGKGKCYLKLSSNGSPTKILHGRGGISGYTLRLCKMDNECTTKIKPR
The test is described as follows: Factor XIa assay (chromogenic substrate S-2366). Particulars: for Percent Selectivity XIa: 100 times IC50 for factor Xa divided by IC50 for factor XIa; for IC50: 60 min preincubation at room temperature, >25 means less than 50% inhibition at 25 μM. How it is done:
as §1, §2
Enzyme activity was determined using as substrate, S2366 (L-pyroglutamyl-L-prolyl-L-arginine-p-nitroanilide hydrochloride) which was obtained from Kabi Diagnostica. The substrate was made up in deionized water prior to use.
Human factor XIa was obtained from Enzyme Research Laboratories, Inc. The enzyme was diluted into TBSA prior to use.
The assay was run by combining in appropriate wells 50 μL of TBSA, 50 μL of inhibitor in TBSA or TBSA (as negative control) and 50 μL of 2 nM human Factor Xia or TBSA (as background control). After incubating this mixture for 60 minutes at room temperature, 50 μL of 6 mM S-2366 was added to each well and the initial rate of the change of the optical density at 405 nm (OD405 nm) for each well was determined. OD405 nm was measured every 10 seconds for 5 minutes.

The target of a further test is T3, Human α-thrombin (Homo sapiens, UniProt P00734).
T3 construct: purchased Enzyme Research Laboratories, Inc
The test can be described thus: Thrombin assay (chromogenic substrate S-2238). Particulars: for Percent Selectivity Thrombin: 100 times IC50 for factor Xa divided by IC50 for thrombin; for IC50: 60 min preincubation at room temperature, >25 means less than 50% inhibition at 25 μM. How it is done:
as §1, §2
Enzyme activity was determined using as substrate, S2238 (D-phenylalanyl-L-pipecolyl-L-arginine-p-nitroanilide dihydrochloride) which was obtained from Kabi Diagnostica. The substrate was made up in deionized water prior to use.
Human α-thrombin was obtained from Enzyme Research Laboratories, Inc. The enzyme was diluted into TBSA prior to use.
The assay was run by combining in appropriate wells 50 μL of TBSA, 50 μL of inhibitor in TBSA or TBSA (as negative control) and 50 μL of 4 nM human α-thrombin or TBSA (as background control). After incubating this mixture for 60 minutes at room temperature, 50 μL of 0.24 mM S-2238 was added to each well and the initial rate of the change of optical density at 405 nm (OD405 nm) for each well was determined. OD405 nm was measured every 10 seconds for 5 minutes.

In test [1] the target is T4, Human recombinant t-PA (Activase) (Homo sapiens, UniProt P00750).
T4 construct: purchased Genentech, Inc. Activase
T4 sequence (P00750 36-562): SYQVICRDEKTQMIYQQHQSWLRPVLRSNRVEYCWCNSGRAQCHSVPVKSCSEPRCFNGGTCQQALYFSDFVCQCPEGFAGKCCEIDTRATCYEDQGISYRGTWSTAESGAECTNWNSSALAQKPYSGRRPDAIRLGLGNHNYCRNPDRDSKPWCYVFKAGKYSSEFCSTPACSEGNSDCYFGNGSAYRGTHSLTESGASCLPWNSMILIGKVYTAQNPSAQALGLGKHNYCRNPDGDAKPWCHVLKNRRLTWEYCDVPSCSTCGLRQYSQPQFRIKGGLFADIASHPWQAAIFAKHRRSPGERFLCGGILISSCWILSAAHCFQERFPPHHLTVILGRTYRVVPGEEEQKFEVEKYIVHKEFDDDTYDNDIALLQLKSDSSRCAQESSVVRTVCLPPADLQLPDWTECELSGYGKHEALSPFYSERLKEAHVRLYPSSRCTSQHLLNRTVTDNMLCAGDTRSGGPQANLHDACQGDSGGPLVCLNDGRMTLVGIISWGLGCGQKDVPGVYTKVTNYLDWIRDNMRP
The test is described as follows: tPA assay (substrate Pefachrome tPA). Particulars: for Percent Selectivity tPA: 100 times IC50 for factor Xa divided by IC50 for tPA; for IC50: 60 min preincubation at room temperature, >25 means less than 50% inhibition at 25 μM. As for the experimental part:
as §1, §2
Enzyme activity was determined using as substrate, Pefachrome tPA (O-methylsulfonate-D-hexahydrotyrosine-L-glycyl-L-argini ne-p-nit roanilide acetate salt) which was obtained from Centerchem, Inc. The substrate was made up in deionized water prior to use.
Human recombinant t-PA (Activase®) was obtained. from Genentech, Inc. The enzyme was reconstituted with water, then diluted into TBSA prior to use.
The assay was run by combining in appropriate wells 50 μL of TBSA, 50 μL of inhibitor in TBSA or TBSA (as negative control) and 50 μL of 4 nM human recombinant tPA or TBSA (as background control). After incubating this mixture for 60 minutes at room temperature, 50 μL of 4 mM Pefachrome tPA was added to each well and the initial rate of the change of optical density at 405 nm (OD405 nm) for each well was determined. OD405 nm was measured every 10 seconds for 5 minutes.

The term IC50 denotes the concentration that inhibits the measured activity by half. For `CC(C)(C)OC(=O)N[C@H](Cc1ccccc1)C(=O)N1CC[C@H](c2ccccc2)[C@H]1C(=O)N[C@H](C=O)CCCNC(=N)N` (relative stereo) [[10], N-t-butoxycarbonyl-D-phenylalanyl-L-(3-trans-phenyl)prolinyl-L-argininal], at Human factor Xa, it took 0.625 µM to reach half-maximal inhibition (IC50) and the “Percent Selectivity Xa” value is given as 100. At Human factor XIa, the “Percent Selectivity XIa” value was below 2.5 and the IC50 is above 25 µM. On Human α-thrombin, the “Percent Selectivity Thrombin” value was below 2.5 and the concentration for half-maximal inhibition (IC50) is above 25 µM. In test [1], the “Percent Selectivity tPA” value is below 2.5 and the IC50 is above 25 µM.

With `CC(C)(C)OC(=O)N[C@H](Cc1ccc2ccccc2c1)C(=O)N[C@@H](Cc1ccccc1)C(=O)N[C@H](C=O)CCCNC(=N)N` [[1], N-t-butoxycarbonyl-D-3-(2-naphthyl)alanyl-L-phenylalanyl-L-argininal] (Boc-[d2Nal]-Phe-Arg-aldehyde), at Human factor Xa, the IC50 worked out at 0.22 µM and the “Percent Selectivity Xa” value is given as 100. At Human factor XIa, the “Percent Selectivity XIa” value is 1.4 and the IC50 was 16 µM. Also, on Human α-thrombin, the “Percent Selectivity Thrombin” value is 1.6 and half-maximal inhibition (IC50) required 14 µM. In test [1], the “Percent Selectivity tPA” value was below 0.9 and the IC50 is above 25 µM.

With `CC(C)(C)OC(=O)N[C@@H](C(=O)N[C@@H](Cc1ccccc1)C(=O)N[C@H](C=O)CCCN=C(N)N)c1ccccc1` [[2], N-t-Butoxycarbonyl-D-2-Phenylglycyl-L-phenylalanyl-L-Arainial] (Boc-[dPhg]-Phe-Arg-aldehyde), on Human factor Xa, the IC50 came to 0.64 µM and the “Percent Selectivity Xa” value is reported as 100. On Human factor XIa, the “Percent Selectivity XIa” value was 4.9 and half-maximal inhibition (IC50) required 13 µM. Moreover, at Human α-thrombin, the “Percent Selectivity Thrombin” value was below 2.6 and the IC50 is above 25 µM. In test [1], the “Percent Selectivity tPA” value was below 2.6 and the 50% inhibitory concentration (IC50) was above 25 µM.

Regarding `CC(C)(C)OC(=O)N[C@H](Cc1ccccc1)C(=O)N[C@@H](Cc1ccc2ccccc2c1)C(=O)N[C@H](C=O)CCCNC(=N)N` [[3], N-t-butoxycarbonyl-D-phenylalanyl-L-3-(2-naphthyl)alanyl-L-argininal] (Boc-[dF]-[2Nal]-Arg-aldehyde), on Human factor Xa, the IC50 came to 0.89 µM and the “Percent Selectivity Xa” value is on record as 100. On Human factor XIa, the “Percent Selectivity XIa” value was determined as 3.6 and 25 µM corresponded to half-maximal inhibition (IC50). Besides, on Human α-thrombin, the “Percent Selectivity Thrombin” value came out at 3.6 and the midpoint of inhibition, the IC50, lay at 25 µM. For the same compound, in test [1], the “Percent Selectivity tPA” value is listed as below 3.6 and the IC50 is above 25 µM.

On to `CC(C)(C)OC(=O)N[C@H](Cc1ccccc1)C(=O)N[C@@H](Cc1ccccc1)C(=O)N[C@H](C=O)CCCNC(=N)N` [[4], N-t-butoxycarbonyl-D-phenylalinyl-L-phenylalinyl-L-argininal] (Boc-[dF]-Phe-Arg-aldehyde), for which, at Human factor Xa, inhibition was half-maximal at 0.21 µM (IC50) and the “Percent Selectivity Xa” value came to 100. Besides, at Human factor XIa, the “Percent Selectivity XIa” value is given as 0.8 and half-maximal inhibition (IC50) required 25 µM. At Human α-thrombin, the “Percent Selectivity Thrombin” value is reported as below 0.8 and the IC50 is above 25 µM. Also, in test [1], the “Percent Selectivity tPA” value is below 0.8 and the IC50 was above 25 µM.

Consider `CC(C)(C)OC(=O)N[C@H](Cc1ccccc1)C(=O)N[C@@H](Cc1cccc2ccccc12)C(=O)N[C@H](C=O)CCCNC(=N)N` [[5], N-t-butoxycarbonyl-D-phenylalanyl-L-3-(1-naphthyl)alanyl-L-argininal] (Boc-[dF]-[1Nal]-Arg-aldehyde), for which, on Human factor Xa, half-maximal inhibition (IC50) was put at 0.03 µM and the “Percent Selectivity Xa” value came to 100. Further, at Human factor XIa, the “Percent Selectivity XIa” value came out at 0.2 and the half-maximal inhibitory concentration (IC50) stood at 14 µM. On Human α-thrombin, the “Percent Selectivity Thrombin” value is given as 0.2 and the IC50 came to 13 µM. Moreover, in test [1], the “Percent Selectivity tPA” value was below 0.1 and the half-inhibitory concentration (IC50) was above 25 µM.

For the compound `CC(=O)N[C@H](Cc1ccccc1)C(=O)N[C@@H](Cc1cccc2ccccc12)C(=O)N[C@H](C=O)CCCNC(=N)N` [[6], N-acetyl-D-phenylalanyl-L-3-(1-naphthyl)alanyl-L-argininal] (Ac-[dF]-[1Nal]-Arg-aldehyde), at Human factor Xa, the IC50 stood at 0.025 µM and the “Percent Selectivity Xa” value is on record as 100. Moreover, at Human factor XIa, the “Percent Selectivity XIa” value is given as 7.8 and the 50% inhibitory concentration (IC50) was determined as 0.32 µM. Also, at Human α-thrombin, the “Percent Selectivity Thrombin” value is below 0.1 and the concentration for half-maximal inhibition (IC50) is above 25 µM. In test [1], the “Percent Selectivity tPA” value is on record as below 0.1 and the IC50 is above 25 µM.

Consider `CC(C)(C)OC(=O)NC(C(=O)N[C@@H](Cc1cccc2ccccc12)C(=O)N[C@H](C=O)CCCNC(=N)N)c1ccc(-c2ccccc2)cc1` (stereo partly drawn) [[7], N-t-butoxycarbonyl-D,L-(α-biphenyl)glycyl-L-3-(1-naphthyl)alanyl-L-argininal], for which, at Human factor Xa, 2.5 µM corresponded to half-maximal inhibition (IC50) and the “Percent Selectivity Xa” value turned out to be 100. On Human factor XIa, the “Percent Selectivity XIa” value is below 10 and the IC50 was above 25 µM. On Human α-thrombin, the “Percent Selectivity Thrombin” value is listed as below 10 and the half-inhibitory concentration (IC50) is above 25 µM. Also, in test [1], the “Percent Selectivity tPA” value is listed as below 10 and the half-maximal inhibitory concentration (IC50) is above 25 µM.

As to `N=C(N)NCCC[C@@H](C=O)NC(=O)[C@H](Cc1cccc2ccccc12)NC(=O)[C@@H](Cc1ccccc1)NC(=O)CCC(=O)O` [[8], N-succinyl-D-phenylalanyl-L-3-(1-naphthyl)alanyl-L-argininal] (Suc-[dF]-[1Nal]-Arg-aldehyde), at Human factor Xa, inhibition was half-maximal at 0.023 µM (IC50) and the “Percent Selectivity Xa” value is on record as 100. Besides, on Human factor XIa, the “Percent Selectivity XIa” value is recorded as 0.12 and it took 20 µM to reach half-maximal inhibition (IC50). At Human α-thrombin, the “Percent Selectivity Thrombin” value was below 0.1 and the half-inhibitory concentration (IC50) is above 25 µM. In test [1], the “Percent Selectivity tPA” value is below 0.1 and the IC50 was above 25 µM.

Take `CC(C)CCC(=O)N[C@H](Cc1ccccc1)C(=O)N[C@@H](Cc1cccc2ccccc12)C(=O)N[C@H](C=O)CCCNC(=N)N` [[9]]: on Human factor Xa, the 50% inhibitory concentration (IC50) is 0.17 µM and the “Percent Selectivity Xa” value is recorded as 100. Moreover, at Human factor XIa, the “Percent Selectivity XIa” value is on record as below 0.68 and the concentration for half-maximal inhibition (IC50) is above 25 µM. Moreover, at Human α-thrombin, the “Percent Selectivity Thrombin” value is listed as below 0.68 and the IC50 is above 25 µM.
